In ChEMBL document CHEMBL5303765, “Data for DCP probe BAY-7081” (2023):

Legend:
Peregrin (Homo sapiens) = biological target: T1, Peregrin (Homo sapiens) (UniProt P55201); experiment: BRPF1 SGC Tm panel (DSF); conditions: for ΔTm: Compound concentration 10.0 uM
T1 sequence (whole entry): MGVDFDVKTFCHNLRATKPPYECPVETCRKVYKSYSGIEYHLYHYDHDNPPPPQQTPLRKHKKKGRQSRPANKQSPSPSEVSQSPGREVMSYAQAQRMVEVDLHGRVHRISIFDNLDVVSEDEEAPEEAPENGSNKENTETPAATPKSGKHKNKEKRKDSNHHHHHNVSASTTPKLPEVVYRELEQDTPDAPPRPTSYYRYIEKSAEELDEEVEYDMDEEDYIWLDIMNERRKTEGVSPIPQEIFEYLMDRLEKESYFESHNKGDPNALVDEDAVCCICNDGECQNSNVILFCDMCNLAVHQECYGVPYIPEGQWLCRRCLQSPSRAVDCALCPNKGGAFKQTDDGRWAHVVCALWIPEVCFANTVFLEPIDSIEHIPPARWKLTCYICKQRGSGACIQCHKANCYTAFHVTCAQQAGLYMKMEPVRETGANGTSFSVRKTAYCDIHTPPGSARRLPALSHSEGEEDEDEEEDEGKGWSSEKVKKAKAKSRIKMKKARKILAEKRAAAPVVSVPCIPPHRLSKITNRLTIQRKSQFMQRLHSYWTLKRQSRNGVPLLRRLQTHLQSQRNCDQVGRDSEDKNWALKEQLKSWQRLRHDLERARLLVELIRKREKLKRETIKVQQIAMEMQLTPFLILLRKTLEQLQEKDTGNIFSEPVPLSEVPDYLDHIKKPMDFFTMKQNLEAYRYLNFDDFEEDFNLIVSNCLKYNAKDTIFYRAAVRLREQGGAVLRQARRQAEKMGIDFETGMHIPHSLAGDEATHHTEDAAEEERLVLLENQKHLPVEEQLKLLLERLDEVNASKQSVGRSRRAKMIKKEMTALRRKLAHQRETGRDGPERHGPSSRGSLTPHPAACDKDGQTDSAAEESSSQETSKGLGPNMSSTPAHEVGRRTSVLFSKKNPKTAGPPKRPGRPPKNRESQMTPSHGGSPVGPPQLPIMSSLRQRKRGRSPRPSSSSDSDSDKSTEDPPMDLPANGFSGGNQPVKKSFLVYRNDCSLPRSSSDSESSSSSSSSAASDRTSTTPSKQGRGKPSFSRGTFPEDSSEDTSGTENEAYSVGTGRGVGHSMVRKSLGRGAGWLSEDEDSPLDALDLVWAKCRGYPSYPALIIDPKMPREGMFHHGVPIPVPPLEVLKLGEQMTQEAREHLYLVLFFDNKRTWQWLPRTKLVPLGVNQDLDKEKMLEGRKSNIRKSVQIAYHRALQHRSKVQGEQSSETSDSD

[1] = biological target: Dual specificity mitogen-activated protein kinase kinase 1 (Homo sapiens) (UniProt Q02750); experiment: MAP2K1 SGC Tm panel (DSF); conditions: for ΔTm: Compound concentration 10.0 uM
[2] = biological target: Mitogen-activated protein kinase 9 (Homo sapiens) (UniProt P45984); experiment: MAPK9 SGC Tm panel (DSF); conditions: for ΔTm: Compound concentration 10.0 uM
[3] = biological target: MAP/microtubule affinity-regulating kinase 3 (Homo sapiens) (UniProt P27448); experiment: MARK3 SGC Tm panel (DSF); conditions: for ΔTm: Compound concentration 10.0 uM
[4] = biological target: T2, Dual specificity protein kinase TTK (Homo sapiens) (UniProt P33981); experiment: TTK SGC Tm panel (DSF); conditions: for ΔTm: Compound concentration 10.0 uM
T2 sequence (whole entry): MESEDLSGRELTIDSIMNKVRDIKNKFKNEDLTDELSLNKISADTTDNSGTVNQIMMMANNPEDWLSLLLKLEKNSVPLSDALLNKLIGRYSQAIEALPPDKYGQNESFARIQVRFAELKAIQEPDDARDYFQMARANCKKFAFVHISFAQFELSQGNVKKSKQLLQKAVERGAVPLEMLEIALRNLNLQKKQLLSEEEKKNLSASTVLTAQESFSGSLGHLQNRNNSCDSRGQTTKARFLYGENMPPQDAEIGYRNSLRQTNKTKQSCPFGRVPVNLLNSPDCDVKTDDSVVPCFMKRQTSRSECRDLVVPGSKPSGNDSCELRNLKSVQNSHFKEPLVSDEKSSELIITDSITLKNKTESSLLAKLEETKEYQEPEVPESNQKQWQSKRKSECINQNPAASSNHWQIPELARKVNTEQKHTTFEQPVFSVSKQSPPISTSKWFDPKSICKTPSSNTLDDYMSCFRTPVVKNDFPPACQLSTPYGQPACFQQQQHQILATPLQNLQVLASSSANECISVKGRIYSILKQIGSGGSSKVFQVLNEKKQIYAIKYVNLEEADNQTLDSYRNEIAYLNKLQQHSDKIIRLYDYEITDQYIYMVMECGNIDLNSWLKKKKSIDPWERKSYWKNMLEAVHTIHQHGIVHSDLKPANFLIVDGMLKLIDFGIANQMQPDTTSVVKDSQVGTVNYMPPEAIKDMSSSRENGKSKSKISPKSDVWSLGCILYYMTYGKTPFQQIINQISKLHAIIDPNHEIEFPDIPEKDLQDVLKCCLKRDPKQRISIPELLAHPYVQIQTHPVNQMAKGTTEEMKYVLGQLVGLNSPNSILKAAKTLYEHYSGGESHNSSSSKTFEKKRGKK

[5] = biological target: 5-hydroxytryptamine receptor 2A (Homo sapiens) (UniProt P28223); conditions: Compound concentration 10.0 uM
[6] = biological target: T3, 5-hydroxytryptamine receptor 3A (Homo sapiens) (UniProt P46098); conditions: Compound concentration 10.0 uM
T3 sequence (whole entry): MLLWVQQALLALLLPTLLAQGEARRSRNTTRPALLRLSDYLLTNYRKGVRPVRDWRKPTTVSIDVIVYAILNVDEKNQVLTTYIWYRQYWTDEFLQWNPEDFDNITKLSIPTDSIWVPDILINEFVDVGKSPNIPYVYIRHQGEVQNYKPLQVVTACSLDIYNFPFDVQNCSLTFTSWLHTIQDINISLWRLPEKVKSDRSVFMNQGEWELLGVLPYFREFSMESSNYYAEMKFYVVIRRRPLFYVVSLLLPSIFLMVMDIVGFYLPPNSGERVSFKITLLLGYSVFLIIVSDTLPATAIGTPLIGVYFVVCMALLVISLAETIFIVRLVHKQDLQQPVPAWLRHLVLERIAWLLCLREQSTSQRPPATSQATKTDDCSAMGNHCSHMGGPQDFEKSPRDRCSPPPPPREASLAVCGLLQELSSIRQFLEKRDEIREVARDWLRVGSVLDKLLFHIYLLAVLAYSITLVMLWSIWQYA

[7] = biological target: Sodium-dependent dopamine transporter (Homo sapiens) (UniProt Q01959); conditions: Compound concentration 10.0 uM
[8] = biological target: Histamine H3 receptor (Homo sapiens) (UniProt Q9Y5N1); conditions: Compound concentration 10.0 uM
Chain of Histamine H3 receptor (Homo sapiens) (Q9Y5N1 whole entry): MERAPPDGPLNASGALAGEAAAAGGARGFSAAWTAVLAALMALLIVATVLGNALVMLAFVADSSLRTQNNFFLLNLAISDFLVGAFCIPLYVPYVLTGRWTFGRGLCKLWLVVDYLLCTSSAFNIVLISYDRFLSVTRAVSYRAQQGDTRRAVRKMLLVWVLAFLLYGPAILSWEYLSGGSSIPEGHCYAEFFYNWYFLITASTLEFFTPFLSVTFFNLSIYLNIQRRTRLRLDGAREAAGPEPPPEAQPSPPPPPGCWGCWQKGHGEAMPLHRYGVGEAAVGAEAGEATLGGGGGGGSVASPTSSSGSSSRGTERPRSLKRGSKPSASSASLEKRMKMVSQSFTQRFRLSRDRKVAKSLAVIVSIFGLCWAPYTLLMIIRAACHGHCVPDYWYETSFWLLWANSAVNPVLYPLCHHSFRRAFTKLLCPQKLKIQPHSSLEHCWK

Chain of Dual specificity mitogen-activated protein kinase kinase 1 (Homo sapiens) (Q02750 whole entry): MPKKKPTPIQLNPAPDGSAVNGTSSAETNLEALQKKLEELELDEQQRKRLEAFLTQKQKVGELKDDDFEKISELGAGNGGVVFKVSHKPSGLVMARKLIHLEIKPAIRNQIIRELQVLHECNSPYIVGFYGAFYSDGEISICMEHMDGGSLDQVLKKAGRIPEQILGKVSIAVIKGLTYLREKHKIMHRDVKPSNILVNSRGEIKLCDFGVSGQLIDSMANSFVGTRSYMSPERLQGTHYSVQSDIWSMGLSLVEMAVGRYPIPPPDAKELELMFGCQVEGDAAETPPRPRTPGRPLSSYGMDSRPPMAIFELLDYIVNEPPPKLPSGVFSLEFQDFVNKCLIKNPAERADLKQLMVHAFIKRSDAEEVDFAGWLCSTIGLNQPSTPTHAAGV
Chain of Sodium-dependent dopamine transporter (Homo sapiens) (Q01959 whole entry): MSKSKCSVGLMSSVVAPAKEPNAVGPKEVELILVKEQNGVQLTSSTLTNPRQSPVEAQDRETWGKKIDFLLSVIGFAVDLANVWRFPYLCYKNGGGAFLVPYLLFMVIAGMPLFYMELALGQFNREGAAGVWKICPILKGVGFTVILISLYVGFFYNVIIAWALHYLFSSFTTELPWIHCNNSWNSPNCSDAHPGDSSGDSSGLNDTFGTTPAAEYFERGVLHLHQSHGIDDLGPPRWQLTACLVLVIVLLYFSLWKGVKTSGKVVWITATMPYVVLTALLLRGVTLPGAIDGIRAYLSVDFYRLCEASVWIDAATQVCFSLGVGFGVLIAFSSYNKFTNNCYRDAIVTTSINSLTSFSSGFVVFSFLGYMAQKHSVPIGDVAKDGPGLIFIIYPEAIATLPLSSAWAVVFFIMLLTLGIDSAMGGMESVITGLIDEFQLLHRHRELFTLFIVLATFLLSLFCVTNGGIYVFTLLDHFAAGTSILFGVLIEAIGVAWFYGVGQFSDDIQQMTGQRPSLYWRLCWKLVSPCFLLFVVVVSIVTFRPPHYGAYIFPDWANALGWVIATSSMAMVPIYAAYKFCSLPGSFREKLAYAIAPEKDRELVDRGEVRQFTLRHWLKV
Chain of MAP/microtubule affinity-regulating kinase 3 (Homo sapiens) (P27448 whole entry, looked up): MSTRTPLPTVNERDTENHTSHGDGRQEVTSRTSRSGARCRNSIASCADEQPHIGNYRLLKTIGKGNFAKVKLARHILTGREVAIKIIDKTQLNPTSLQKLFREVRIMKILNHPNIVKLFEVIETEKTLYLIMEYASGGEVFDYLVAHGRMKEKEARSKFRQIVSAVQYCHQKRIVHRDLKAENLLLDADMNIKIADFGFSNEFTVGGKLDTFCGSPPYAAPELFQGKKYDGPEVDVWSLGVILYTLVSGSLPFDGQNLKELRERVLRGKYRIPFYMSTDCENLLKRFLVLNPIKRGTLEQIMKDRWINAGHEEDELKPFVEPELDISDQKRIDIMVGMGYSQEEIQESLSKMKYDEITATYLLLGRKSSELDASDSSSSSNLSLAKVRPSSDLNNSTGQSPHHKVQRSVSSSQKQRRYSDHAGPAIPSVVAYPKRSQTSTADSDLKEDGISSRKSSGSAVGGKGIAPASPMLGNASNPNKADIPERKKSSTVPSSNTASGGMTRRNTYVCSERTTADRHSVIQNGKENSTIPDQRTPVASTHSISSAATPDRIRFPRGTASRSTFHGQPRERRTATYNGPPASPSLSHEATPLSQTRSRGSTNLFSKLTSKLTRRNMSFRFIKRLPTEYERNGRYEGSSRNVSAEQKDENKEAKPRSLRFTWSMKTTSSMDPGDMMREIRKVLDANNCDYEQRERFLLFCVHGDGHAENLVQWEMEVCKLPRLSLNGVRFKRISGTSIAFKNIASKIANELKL
Chain of Mitogen-activated protein kinase 9 (Homo sapiens) (P45984 whole entry, looked up): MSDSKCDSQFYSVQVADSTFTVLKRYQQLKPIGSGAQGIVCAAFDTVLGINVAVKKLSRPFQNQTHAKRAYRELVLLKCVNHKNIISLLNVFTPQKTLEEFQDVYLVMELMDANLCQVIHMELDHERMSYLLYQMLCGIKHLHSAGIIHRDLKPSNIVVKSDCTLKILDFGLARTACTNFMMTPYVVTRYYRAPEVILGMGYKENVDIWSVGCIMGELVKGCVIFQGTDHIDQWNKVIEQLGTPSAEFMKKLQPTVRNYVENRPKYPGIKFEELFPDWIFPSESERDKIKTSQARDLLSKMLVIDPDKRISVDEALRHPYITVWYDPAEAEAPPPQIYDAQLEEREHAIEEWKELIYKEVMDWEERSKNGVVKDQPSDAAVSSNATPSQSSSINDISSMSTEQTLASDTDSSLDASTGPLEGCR
Chain of 5-hydroxytryptamine receptor 2A (Homo sapiens) (P28223 whole entry): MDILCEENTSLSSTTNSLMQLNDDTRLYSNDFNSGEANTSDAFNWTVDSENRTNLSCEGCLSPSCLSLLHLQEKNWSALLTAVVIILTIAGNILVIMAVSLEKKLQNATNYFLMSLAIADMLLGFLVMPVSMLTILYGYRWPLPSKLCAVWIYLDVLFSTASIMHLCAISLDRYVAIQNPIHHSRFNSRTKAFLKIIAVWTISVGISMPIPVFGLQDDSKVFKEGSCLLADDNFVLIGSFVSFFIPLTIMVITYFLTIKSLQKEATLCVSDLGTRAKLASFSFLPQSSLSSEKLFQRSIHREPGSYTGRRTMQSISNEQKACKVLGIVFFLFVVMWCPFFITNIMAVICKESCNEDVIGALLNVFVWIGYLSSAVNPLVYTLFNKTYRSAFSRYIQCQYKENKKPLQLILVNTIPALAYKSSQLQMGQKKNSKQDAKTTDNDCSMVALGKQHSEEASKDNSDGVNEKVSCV

| Compound | delta Tm Staurosporine positive control (Peregrin (Homo sapiens)) | ΔTm (Peregrin (Homo sapiens)) | delta Tm Staurosporine positive control [1] | ΔTm [1] | delta Tm Staurosporine positive control [2] | ΔTm [2] | delta Tm Staurosporine positive control [3] | ΔTm [3] | delta Tm Staurosporine positive control [4] | ΔTm [4] | inhibition [5] [%] | inhibition [6] [%] | inhibition [7] [%] | inhibition [8] [%] |
| --- | --- | --- | --- | --- | --- | --- | --- | --- | --- | --- | --- | --- | --- | --- |
| CCC[C@H]1CNCc2c1[nH]c(=O)c(C#N)c2N1CCC2(CC1)CC2 | -0.107 | -0.754 | 6.3 | -0.252 | 3.03 | -0.605 | 17.5 | -0.331 | 7.9 | 0.222 | -6.26 | 7.4 | 3.42 | -0.66 |
| CCC[C@@H]1CNCc2c1[nH]c(=O)c(C#N)c2N1CCC2(CC1)CC2 | -0.107 | -0.426 | 6.3 | -0.203 | 3.03 | -0.0844 | 17.5 | -0.214 | 7.9 | 0.316 | -4.86 | 5.44 | 7.47 | -1.01 |
